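Five compound concentrations were applied to cells in 96-well plates for 48 hours; endpoints were derived by simple linear interpolation of the resulting dose-response curve. GI50: concentration for 50% inhibition of growth. TGI: total growth inhibition.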
Legend:
Assay in all cases: growth of human tumour cells (NCI), 48 h
786-0 renal = system: 786-0 renal
A498 renal = system: A498 renal
A549 NSCLC = system: A549 NSCLC
ACHN renal = system: ACHN renal
BT-549 breast = system: BT-549 breast
CAKI-1 renal = system: CAKI-1 renal
CCRF-CEM leukemia = system: CCRF-CEM leukemia
COLO 205 colon = system: COLO 205 colon
DU-145 prostate = system: DU-145 prostate
EKVX NSCLC = system: EKVX NSCLC
HCT-116 colon = system: HCT-116 colon
HCT-15 colon = system: HCT-15 colon
HL-60(TB) leukemia = system: HL-60(TB) leukemia
HOP-62 NSCLC = system: HOP-62 NSCLC
HOP-92 NSCLC = system: HOP-92 NSCLC
HS 578T breast = system: HS 578T breast
HT29 colon = system: HT29 colon
IGROV1 ovarian = system: IGROV1 ovarian
K-562 leukemia = system: K-562 leukemia
KM12 colon = system: KM12 colon
LOX IMVI melanoma = system: LOX IMVI melanoma
M14 melanoma = system: M14 melanoma
MALME-3M melanoma = system: MALME-3M melanoma
MCF7 breast = system: MCF7 breast
MDA-MB-231 breast = system: MDA-MB-231 breast
MDA-MB-435 = system: MDA-MB-435
MOLT-4 leukemia = system: MOLT-4 leukemia
NCI-H226 lung = system: NCI-H226 lung
NCI-H23 lung = system: NCI-H23 lung
NCI-H460 lung = system: NCI-H460 lung
NCI-H522 lung = system: NCI-H522 lung
NCI/ADR-RES ovarian = system: NCI/ADR-RES ovarian
OVCAR-3 ovarian = system: OVCAR-3 ovarian
OVCAR-4 ovarian = system: OVCAR-4 ovarian
OVCAR-5 ovarian = system: OVCAR-5 ovarian
OVCAR-8 ovarian = system: OVCAR-8 ovarian
PC-3 prostate = system: PC-3 prostate
RPMI-8226 leukemia = system: RPMI-8226 leukemia
RXF 393 renal = system: RXF 393 renal
SF-268 CNS = system: SF-268 CNS
SF-295 CNS = system: SF-295 CNS
SF-539 CNS = system: SF-539 CNS
SK-MEL-2 melanoma = system: SK-MEL-2 melanoma
SK-MEL-28 melanoma = system: SK-MEL-28 melanoma
SK-MEL-5 melanoma = system: SK-MEL-5 melanoma
SK-OV-3 ovarian = system: SK-OV-3 ovarian
SN12C renal = system: SN12C renal
SNB-19 CNS = system: SNB-19 CNS
SNB-75 CNS = system: SNB-75 CNS
SR leukemia = system: SR leukemia
SW-620 colon = system: SW-620 colon
T-47D breast = system: T-47D breast
TK-10 renal = system: TK-10 renal
U251 CNS = system: U251 CNS
UACC-257 melanoma = system: UACC-257 melanoma
UACC-62 melanoma = system: UACC-62 melanoma
UO-31 renal = system: UO-31 renal
HCC-2998 colon = system: HCC-2998 colon

CCOn1cc(C[C@@]2(O)C(=O)OC3[C@@H](O)CO[C@@]32O)c2ccccc21 (stereo partly specified)
TGI (786-0 renal): > 100 µM
TGI (A498 renal): 4.09 µM
TGI (A549 NSCLC): > 100 µM
TGI (ACHN renal): > 100 µM
TGI (BT-549 breast): > 100 µM
TGI (CAKI-1 renal): > 100 µM
TGI (CCRF-CEM leukemia): > 100 µM
TGI (COLO 205 colon): > 100 µM
TGI (DU-145 prostate): > 100 µM
TGI (EKVX NSCLC): > 100 µM
TGI (HCT-116 colon): > 100 µM
TGI (HCT-15 colon): > 100 µM
TGI (HL-60(TB) leukemia): > 100 µM
TGI (HOP-62 NSCLC): > 100 µM
TGI (HOP-92 NSCLC): > 100 µM
TGI (HS 578T breast): > 100 µM
TGI (HT29 colon): > 100 µM
TGI (IGROV1 ovarian): > 100 µM
TGI (K-562 leukemia): > 100 µM
TGI (KM12 colon): > 100 µM
TGI (LOX IMVI melanoma): > 100 µM
TGI (M14 melanoma): > 100 µM
TGI (MALME-3M melanoma): > 100 µM
TGI (MCF7 breast): > 100 µM
TGI (MDA-MB-231 breast): > 100 µM
TGI (MDA-MB-435): > 100 µM
TGI (MOLT-4 leukemia): > 100 µM
TGI (NCI-H226 lung): > 100 µM
TGI (NCI-H23 lung): > 100 µM
TGI (NCI-H460 lung): > 100 µM
TGI (NCI-H522 lung): > 100 µM
TGI (NCI/ADR-RES ovarian): > 100 µM
TGI (OVCAR-3 ovarian): > 100 µM
TGI (OVCAR-4 ovarian): > 100 µM
TGI (OVCAR-5 ovarian): > 100 µM
TGI (OVCAR-8 ovarian): > 100 µM
TGI (PC-3 prostate): > 100 µM
TGI (RPMI-8226 leukemia): > 100 µM
TGI (RXF 393 renal): > 100 µM
TGI (SF-268 CNS): > 100 µM
TGI (SF-295 CNS): > 100 µM
TGI (SF-539 CNS): > 100 µM
TGI (SK-MEL-2 melanoma): > 100 µM
TGI (SK-MEL-28 melanoma): > 100 µM
TGI (SK-MEL-5 melanoma): > 100 µM
TGI (SK-OV-3 ovarian): > 100 µM
TGI (SN12C renal): > 100 µM
TGI (SNB-19 CNS): > 100 µM
TGI (SNB-75 CNS): > 100 µM
TGI (SR leukemia): > 100 µM
TGI (SW-620 colon): > 100 µM
TGI (T-47D breast): > 100 µM
TGI (TK-10 renal): > 100 µM
TGI (U251 CNS): > 100 µM
TGI (UACC-257 melanoma): > 100 µM
TGI (UACC-62 melanoma): > 100 µM
TGI (UO-31 renal): > 100 µM

O=C1Nc2ccc(F)c3c(OCCO)cc(-c4ccc[nH]4)c1c23
GI50 (786-0 renal): 2.44 µM
TGI (786-0 renal): 9.26 µM
GI50 (A498 renal): 0.896 µM
TGI (A498 renal): 4.24 µM
GI50 (A549 NSCLC): 1.21 µM
TGI (A549 NSCLC): 8.57 µM
GI50 (ACHN renal): 0.608 µM
TGI (ACHN renal): 7.2 µM
GI50 (BT-549 breast): 3.21 µM
TGI (BT-549 breast): 11.6 µM
GI50 (CAKI-1 renal): 0.393 µM
TGI (CAKI-1 renal): 3.33 µM
GI50 (CCRF-CEM leukemia): 0.99 µM
TGI (CCRF-CEM leukemia): 11.1 µM
GI50 (COLO 205 colon): 1.33 µM
TGI (COLO 205 colon): 5.79 µM
GI50 (DU-145 prostate): 1.97 µM
TGI (DU-145 prostate): 10.3 µM
GI50 (HCC-2998 colon): 2.63 µM
TGI (HCC-2998 colon): 10.1 µM
GI50 (HCT-116 colon): 1.15 µM
TGI (HCT-116 colon): 20.4 µM
GI50 (HCT-15 colon): 0.957 µM
TGI (HCT-15 colon): 7.87 µM
GI50 (HL-60(TB) leukemia): 1.14 µM
TGI (HL-60(TB) leukemia): 7.44 µM
GI50 (HOP-62 NSCLC): 3.07 µM
TGI (HOP-62 NSCLC): 13.8 µM
GI50 (HOP-92 NSCLC): 0.908 µM
TGI (HOP-92 NSCLC): 5.4 µM
GI50 (HS 578T breast): 1.06 µM
TGI (HS 578T breast): 10.2 µM
GI50 (HT29 colon): 1.99 µM
TGI (HT29 colon): 9.95 µM
GI50 (IGROV1 ovarian): 1.86 µM
TGI (IGROV1 ovarian): 10.4 µM
GI50 (K-562 leukemia): 5.28 µM
TGI (K-562 leukemia): 25 µM
GI50 (KM12 colon): 0.274 µM
TGI (KM12 colon): 2.37 µM
GI50 (LOX IMVI melanoma): 1.19 µM
TGI (LOX IMVI melanoma): 5.38 µM
GI50 (M14 melanoma): 1.4 µM
TGI (M14 melanoma): 12.4 µM
GI50 (MALME-3M melanoma): 3.47 µM
TGI (MALME-3M melanoma): 11.5 µM
GI50 (MCF7 breast): 0.81 µM
TGI (MCF7 breast): 10.9 µM
GI50 (MDA-MB-231 breast): 2.03 µM
TGI (MDA-MB-231 breast): 9.53 µM
GI50 (MDA-MB-435): 1.46 µM
TGI (MDA-MB-435): 14.1 µM
GI50 (MOLT-4 leukemia): 1.21 µM
TGI (MOLT-4 leukemia): 10.3 µM
GI50 (NCI-H226 lung): 1.47 µM
TGI (NCI-H226 lung): 12.8 µM
GI50 (NCI-H23 lung): 1.27 µM
TGI (NCI-H23 lung): 8.05 µM
GI50 (NCI-H460 lung): 0.927 µM
TGI (NCI-H460 lung): 5.14 µM
GI50 (NCI-H522 lung): 2.12 µM
TGI (NCI-H522 lung): 11.6 µM
GI50 (NCI/ADR-RES ovarian): 4.01 µM
TGI (NCI/ADR-RES ovarian): 20.1 µM
GI50 (OVCAR-3 ovarian): 3.59 µM
TGI (OVCAR-3 ovarian): 9.7 µM
GI50 (OVCAR-4 ovarian): 1.44 µM
TGI (OVCAR-4 ovarian): 12.1 µM
GI50 (OVCAR-5 ovarian): 2.35 µM
TGI (OVCAR-5 ovarian): 10 µM
GI50 (OVCAR-8 ovarian): 2.76 µM
TGI (OVCAR-8 ovarian): 18.3 µM
GI50 (PC-3 prostate): 1.32 µM
TGI (PC-3 prostate): 10.3 µM
GI50 (RPMI-8226 leukemia): 1.82 µM
TGI (RPMI-8226 leukemia): 8.18 µM
GI50 (RXF 393 renal): 0.987 µM
TGI (RXF 393 renal): 4.98 µM
GI50 (SF-268 CNS): 2.66 µM
TGI (SF-268 CNS): 6.87 µM
GI50 (SF-295 CNS): 2.43 µM
TGI (SF-295 CNS): 18.9 µM
GI50 (SF-539 CNS): 2.19 µM
TGI (SF-539 CNS): 6.12 µM
GI50 (SK-MEL-2 melanoma): 1.4 µM
TGI (SK-MEL-2 melanoma): 6.51 µM
GI50 (SK-MEL-28 melanoma): 4.43 µM
TGI (SK-MEL-28 melanoma): 15.1 µM
GI50 (SK-MEL-5 melanoma): 2.45 µM
TGI (SK-MEL-5 melanoma): 6.29 µM
GI50 (SK-OV-3 ovarian): 1.47 µM
TGI (SK-OV-3 ovarian): 25 µM
GI50 (SN12C renal): 1.11 µM
TGI (SN12C renal): 9.83 µM
GI50 (SNB-19 CNS): 3.66 µM
TGI (SNB-19 CNS): 14.9 µM
GI50 (SNB-75 CNS): 1.52 µM
TGI (SNB-75 CNS): 7.02 µM
GI50 (SR leukemia): 0.963 µM
TGI (SR leukemia): 5.51 µM
GI50 (SW-620 colon): 0.837 µM
TGI (SW-620 colon): 8.23 µM
GI50 (T-47D breast): 0.513 µM
TGI (T-47D breast): 1.52 µM
GI50 (TK-10 renal): 1.41 µM
TGI (TK-10 renal): 6.42 µM
GI50 (U251 CNS): 0.9 µM
TGI (U251 CNS): 6.3 µM
GI50 (UACC-257 melanoma): 4.94 µM
TGI (UACC-257 melanoma): 17.9 µM
GI50 (UACC-62 melanoma): 2.78 µM
TGI (UACC-62 melanoma): 6.33 µM
GI50 (UO-31 renal): 0.632 µM
TGI (UO-31 renal): 4.05 µM
